For assay [1], the system named is DLD-1 BRCA2−/− cells. The assay can be described thus: Homologous recombination synthetic lethal inhibition of proliferation, DLD-1 BRCA2-/- (Cell Titre Glo 3D). It is filed as cell-based. Particulars: Homo sapiens. Summed up:
(§1)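 Cells are seeded in RPMI 1640 (phenol red free, 10% FBS, GlutaMAX) onto pre-dosed compound (10 μM to 0.51 nM, three-fold). Plates are incubated at 37 °C, and medium plus compound are refreshed on day 6. Viability is read by CellTiter-Glo 3D at day 7 (DLD-1) or day 12 (DLD-1 BRCA2−/−), and the IC50 is fitted.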

Assay [2] relates to DLD-1 cells. The assay can be described thus: Inhibition of proliferation, DLD-1 BRCA2 wt control (Cell Titre Glo 3D). Particulars: Homo sapiens. In kind it is cell-based. Summed up:
as §1

[3] abbreviates: DLD-1, 288 h, DLD-1 BRCA2−/−, 12 days, Cell Titre Glo 3D, read-out: POLQ PD Prolif Lumin BRCA2 −/− Mean pIC50 (converted).
Setting [4] is: DLD-1, 168 h, DLD-1 (BRCA2 wt control), 7 days, Cell Titre Glo 3D, read-out: POLQ PD Prolif Lumin DLD1 Mean pIC50 (converted).
Where [5] appears, read: DLD-1, first proliferation column (c5), DLD-1 BRCA2-/-, read-out: POLQ PD Prolif Lumin (converted).
[6] abbreviates: DLD-1, second proliferation column (c6), DLD-1 BRCA2 wt control, read-out: POLQ PD Prolif Lumin (converted).
Where [7] appears, read: DLD-1, 288 h, DLD-1 BRCA2−/− cells, 12 days, read-out: POLQ PD Prolif Lumin BRCA2 −/− mean pIC50 (converted).
The mark [8] stands for this setting: DLD-1, 168 h, DLD-1 BRCA2 wt cells, 7 days, read-out: POLQ PD Prolif Lumin DLD1 mean pIC50 (converted).

Like-named read-outs stand apart in the source and are kept apart here.

With `Cc1ccnc(Cn2c(-c3ccc(C(=O)NCC(C)(C)O)cc3Cl)nc3c(OC4(C)CC4)ncnc32)c1` [Example T363, 3-chloro-N-(2-hydroxy-2-methylpropyl)-4-(6-(1-methylcyclopropoxy)-9-((4-methylpyridin-2-yl)methyl)-9H-purin-8-yl)benzamide], the IC50 in assay [1] (DLD-1, first proliferation column (c5), taken as DLD-1 BRCA2-/-, read-out: POLQ PD Prolif Lumin (converted)) is 0.794 µM; in assay [2] (DLD-1, second proliferation column (c6), taken as DLD-1 BRCA2 wt, read-out: POLQ PD Prolif Lumin (converted)), more than 10 µM.
Regarding `Cc1ccnc(Cn2c(-c3ccc(OCCO)cc3Cl)nc3c(OC4(C)CC4)ncnc32)c1` [Example 33, 2-(3-Chloro-4-(6-(1-methylcyclopropoxy)-9-((4-methylpyridin-2-yl)methyl)-9H-purin-8-yl)phenoxy)ethan-1-ol], the figures for the IC50 in assay [1] (setting [3]) and in assay [2] (setting [4]) were 0.126 µM and more than 10 µM, respectively.
For the compound `CC1(Oc2ncnc3c2nc(-c2cccc(OCCCC(=O)O)c2Cl)n3Cc2cccc(Cl)c2)CC1` [Example T157, 4-(2-chloro-3-(9-(3-chlorobenzyl)-6-(1-methylcyclopropoxy)-9H-purin-8-yl)phenoxy)butanoic acid], the figures for the IC50 in assay [1] (setting [5]) and in assay [2] (setting [6]) were 0.0316 µM and more than 10 µM, respectively.
Turning to `CN1CCN(C(=O)COc2ccc(-c3nc4c(OC5(C)CC5)ncnc4n3Cc3ccccc3)c(Cl)c2)CC1` [Example C9, 2-(4-(9-benzyl-6-(1-methylcyclopropoxy)-9H-purin-8-yl)-3-chloro-phenoxy)-1-(4-methyl-piperazin-1-yl)ethan-1-one], the IC50 in assay [1] (setting [7]) is 0.126 µM; in assay [2] (setting [8]), more than 10 µM.
The corresponding values for `CN1CCCC(Oc2ccc(-c3nc4c(OC5(C)CC5)ncnc4n3Cc3ccccc3)c(Cl)c2)CC1` (single isomer, unassigned) [Example D13, 9-benzyl-8-(2-chloro-4-((1-methylazepan-4-yl)oxy)phenyl)-6-(1-methylcyclopropoxy)-9H-purine] are 0.126 µM and 3.98 µM.
Regarding `CC1(Oc2ncnc3c2nc(-c2ccc(OCCCCOCC(=O)O)cc2Cl)n3Cc2cccc(Cl)c2)CC1` [Example T445, 2-(4-(3-chloro-4-(9-(3-chlorobenzyl)-6-(1-methylcyclopropoxy)-9H-purin-8-yl)phenoxy)butoxy)acetic acid], the IC50 is 0.251 µM in assay [1] (DLD-1, proliferation, luminescence, taken as DLD-1 BRCA2-/-, read-out: POLQ PD Prolif Lumin (converted)) and more than 10 µM in assay [2] (DLD-1, proliferation, luminescence, second Prolif column (c6), taken as DLD-1 BRCA2 wt control, read-out: POLQ PD Prolif Lumin (converted)).
Consider `CCC1(Oc2ncnc3c2nc(-c2ccc(OCCN4CCNCC4)cc2Cl)n3Cc2ccccc2)CC1` [Example Q2, 9-benzyl-8-(2-chloro-4-(2-(piperazin-1-yl)ethoxy)phenyl)-6-(1-ethylcyclopropoxy)-9H-purine], for which the IC50 in assay [1] (setting [7]) is 0.398 µM; in assay [2] (setting [8]), 2 µM.
`Cc1cc(Cn2c(-c3ccc(OCCN4CCNCC4)cc3Cl)nc3c(OC4(C)CC4)ncnc32)ccn1` [Example T531, 8-(2-chloro-4-(2-(piperazin-1-yl)ethoxy)phenyl)-6-(1-methylcyclopropoxy)-9-((2-methylpyridin-4-yl)methyl)-9H-purine]: the IC50 is 6.31 µM in assay [1] (setting [5]) and more than 10 µM in assay [2] (setting [6]).
In the case of `Cc1cc(OCCN2CCN(C)CC2)ncc1-c1nc2cc(OC(C)C)ccc2n1Cc1cccc(Cl)c1` [Example A7, 1-(3-chlorobenzyl)-5-isopropoxy-2-(4-methyl-6-(2-(4-methylpiperazin-1-yl)ethoxy)pyridin-3-yl)-1H-benzo[d]imidazole], the IC50 in assay [1] (setting [7]) was 0.251 µM; in assay [2] (setting [8]), 1.58 µM.
As for `CC1(Oc2ncnc3c2nc(-c2ccc(OCCCCC(=O)O)cc2Cl)n3Cc2cccc(Cl)c2)CC1` [Example 43, 5-(3-Chloro-4-(9-(3-chlorobenzyl)-6-(1-methylcyclopropoxy)-9H-purin-8-yl)phenoxy)pentanoic acid], the IC50 in assay [1] (setting [3]) was 0.0794 µM; in assay [2] (setting [4]), more than 10 µM.
Regarding `COc1ccc(F)cc1Cn1c(-c2ccc(OCC[C@H](C)C(=O)O)cc2Cl)nc2c(OC3(C)CC3)ncnc21` [Example U68, (S)-4-(3-chloro-4-(9-(5-fluoro-2-methoxybenzyl)-6-(1-methylcyclopropoxy)-9H-purin-8-yl)phenoxy)-2-methylbutanoic acid], the IC50 is 0.0398 µM in assay [1] (DLD-1, DLD-1 BRCA2 −/−, mean, read-out: POLQ PD Prolif Lumin BRCA2 −/− mean pIC50 (converted)) and more than 10 µM in assay [2] (DLD-1, DLD1 BRCA2 wt, mean, read-out: POLQ PD Prolif Lumin DLD1 mean pIC50 (converted)).

The values above are taken from patent US20250195530A1, “POLQ INHIBITORS” (ASTRAZENECA AB, priority 2022, published 2025).
